Conditions: instrument: DT, single field, calibrated with Agilent tune mix (Agilent)

Compound	collision cross section (N2) ([M+H]+) [Å²]	collision cross section (N2) ([M-H]-) [Å²]	other results
Nc1ncnc2c1ncn2[C@@H]1O[C@H](CSCC[C@H](N)C(=O)O)[C@@H](O)[C@H]1O [S-Adenosyl-L-homocysteine]	182.7		
C[S+](CC[C@H](N)C(=O)[O-])C[C@H]1O[C@@H](n2cnc3c(N)ncnc32)[C@H](O)[C@@H]1O (some centres undefined) [S-Adenosylmethionine]	184.5		
CC(O)C(=O)SC[C@H](NC(=O)CC[C@H](N)C(=O)O)C(=O)NCC(=O)O (some centres undefined) [S-Lactoylglutathione]	187.7		collision cross section (N2) ([M+Na-2H]-): 176.59 Å²
O=C(O)CCCCCCCCC(=O)O [Sebacic acid]		141.9	
CC(C)=CCC/C(C)=C/CC/C(C)=C/CC/C=C(\C)CC/C=C(\C)CCC=C(C)C [Squalene]	210.9		
O=C(O)CCCCCCC(=O)O [Suberic acid]		133.2	
O=C(O)CCCCCCC(=O)NCC(=O)O [Suberylglycine]		146.81	collision cross section (N2) ([M+Na]+): 153.7 Å²
O=C(O)C(O)C(O)C(=O)O (centres undefined) [Tartaric acid]		115.46	
C[C@H](CCC(=O)NCCS(=O)(=O)O)[C@H]1CC[C@H]2[C@@H]3[C@H](O)C[C@@H]4C[C@H](O)CC[C@]4(C)[C@H]3C[C@H](O)[C@]12C [Taurocholate]		205.82	collision cross section (N2) ([M+Na]+): 211.2 Å²
Nc1nc(=O)c2c([nH]1)NCC(CNc1ccc(C(=O)N[C@@H](CCC(=O)O)C(=O)O)cc1)N2 (some centres undefined) [Tetrahydrofolate]		195.36	
Cc1ncc(C[n+]2csc(CCOP(=O)(O)O)c2C)c(N)n1 [Thiamine monophosphate]	169.7		
O=C(O)/C=C/CCCCCCCCC(=O)O [Traumatic Acid]		149.85	collision cross section (N2) ([M+Na]+): 161.9 Å²
NCCc1c[nH]c2ccccc12 [Tryptamine]		131.55	collision cross section (N2) ([M+H-H2O]+): 125.1 Å²
NCCc1ccc(O)cc1 [Tyramine]		129.74	
COC1=C(OC)C(=O)C(C/C=C(\C)CCC=C(C)C)=C(C)C1=O [Ubiquinone-2]	174.3		
O=c1ccn([C@@H]2O[C@H](COP(=O)(O)OP(=O)(O)O)[C@@H](O)[C@H]2O)c(=O)[nH]1 [Uridine 5'-diphosphate]	176.5		
O=C(O)[C@H]1O[C@H](OP(=O)(O)OP(=O)(O)OC[C@H]2O[C@@H](n3ccc(=O)[nH]c3=O)[C@H](O)[C@@H]2O)[C@H](O)[C@@H](O)[C@@H]1O [Uridine 5'-diphosphoglucuronic acid]			collision cross section (N2) ([M+Na-2H]-): 201.6 Å²; collision cross section (N2) ([M+Na]+): 210.1 Å²
COc1cc(C(=O)O)ccc1O [Vanillic acid]	136.2		
O=c1[nH]c(=O)c2ncn([C@@H]3O[C@H](COP(=O)(O)O)[C@@H](O)[C@H]3O)c2[nH]1 [Xanthylic acid]	174.7	164.74	
O=P(O)(O)O[C@H]1O[C@H](CO)[C@@H](O)[C@H](O)[C@H]1O [alpha-D-Glucose 1-phosphate]		145.48	collision cross section (N2) ([M+Na]+): 158 Å²
CC(=O)NC(CCC(N)=O)C(=O)O [alpha-N-Acetyl-L-glutamine]		136.83	collision cross section (N2) ([M+Na]+): 144.2 Å²
Nc1ccn([C@H]2C[C@H](O)[C@@H](COP(=O)(O)OP(=O)(O)OP(=O)(O)O)O2)c(=O)n1 [dCTP]	184.9		
N[C@@H](CCC(=O)N[C@@H](Cc1ccccc1)C(=O)O)C(=O)O [gamma-Glutamylphenylalanine]	168.2		
CC(C)[C@H](NC(=O)CC[C@H](N)C(=O)O)C(=O)O [gamma-Glutamylvaline]	160.1		
O=C(O)Cc1ccc(O)cc1 [p-Hydroxyphenylacetic acid]		126.65	

Reference: the C3SDB collision cross section collection
